Measurements from patent publication US20250222017A1, “METHODS OF USING AVERMECTIN COMPOSITIONS FOR THE TREATMENT OF NEUROLOGICAL DISORDERS AND DOSING REGIMENS” (priority 2022, published 2025).
“Also recorded” adds a separate entry of the source. Read-outs that look alike come from different tables or passages of the source.

Experiments:
focal seizures = settings: cited from earlier work
[1] = test system: pentylenetetrazol (PTZ)-induced ictal brain activity; test: Modulation of PTZ-induced seizures, BOLD fMRI; assay type: in vivo, male Wistar rats; settings: positive control, Wistar rats
Description: Functional MRI (fMRI) was performed using a high-field preclinical MRI system in anesthetized male Wistar rats in order to determine the modulation of pentylenetetrazol (PTZ)-induced ictal brain activity by chronic treatment with test compound (TC). […] Vehicle and 3 mg/kg Alprazolam served as controls (see, Table 11). Seizures were induced with PTZ in each experimental group. A schematic of the study design can be seen in FIG. 6. Various physiological parameters were also measured throughout the experiment including body weight, CO2 levels, blood pH, and heart rate. […] Vehicle and 3 mg/kg Alprazolam served as controls (see, Table 12).

human CD4+ T cells = test: Human CD4+ T cells activated under Th17 skewing conditions, in vitro; assay type: cell-based; settings: data not shown
spasms = test: Two-stage model of infantile spasms (NMDA-induced); assay type: in vivo, Sprague-Dawley rats; settings: spasms triggered on P15, rats
Excerpt: A two-stage model of infantile spasms was developed (FIG. 19A). Pregnant Sprague-Dawley rats receive two injections of betamethasone on gestational (G) day 15. Offspring of those pregnancies are used for experiments during infancy, postnatal days (P) 10-15. Spasms are induced by i.p. injection of N-methyl-D-aspartic acid (NMDA), which is graded depending on the postnatal age of the subjects.
Days of dosing were P10, P11, P12, P13, P14 and P15.

EAE = test: Experimental autoimmune encephalomyelitis (EAE) model of MS; assay type: in vivo; settings: EAE in C57BL/6 mice; 1, 2, 4 mg/kg oral once daily, Day 14 to Day 34
Description: EAE is induced in C57BL/6 mice by immunization with MOG35-55 or MOG1-12s in CFA emulsion followed by administration of pertussis toxin (PTX) in PBS. […] Fingolimod (FTY720, Gilenya) is the most commonly used positive control in this model.
Vehicle was 1.6% DMSO in water. […] These were frozen at −20° C. Every 3 to 4 days, one aliquot was thawed and diluted with water to create a fine suspension at 0.8 mg/mL (for 4 mg/kg dosing). Final DMSO concentration was 1.6%. […] FTY720 stock solution (30 mg/mL in ethanol) was prepared for all ongoing studies. Daily, the FTY720 stock solution was diluted with water to the final dosing concentration of 0.6 mg/mL.
EAE was induced on Day 0 by myelin oligodendrocyte glycoprotein (MOG35-55)/complete Freund's adjuvant (CFA) immunization, followed by pertussis toxin (PTX) injections on Days O and 1. Treatment was therapeutic, starting on Day 14. […] Treatment continued through Day 34. Mice were observed through the end of the study, Day 35.
Clinical scores were assessed as follows: 1=limp tail, 2=partial hind leg paralysis, 3=complete hind leg paralysis, 4=complete hindleg and partial front leg paralysis; 5=moribund.

CC[C@@H](C(N)=O)N1CCCC1=O [KEPPRA, Leviteracetam]
Placebo-adjusted >50% Focal Seizure Reduction (focal seizures; 3000 mg): 29%
Placebo-adjusted Median Reduction in Focal Seizure Frequency (focal seizures; 3000 mg): 23-31%

CN1C(=O)CN=C(c2ccccc2)c2cc(Cl)ccc21 [Diazepam]
PTZ-induced brain activity (BOLD fMRI) ([1]; dose not given): effectively cancelled PTZ-induced brain activity

CCC[C@@H]1CC(=O)N([C@@H](CC)C(N)=O)C1 [BRIVIACT, Brivaracetam]
Placebo-adjusted >50% Focal Seizure Reduction (focal seizures; 200 mg): 18%
Placebo-adjusted Median Reduction in Focal Seizure Frequency (focal seizures; 200 mg): 26%

COC[C@@H](NC(C)=O)C(=O)NCc1ccccc1 [VIMPAT, Lacosamide]
Placebo-adjusted >50% Focal Seizure Reduction (focal seizures; 400 mg): 17%
Placebo-adjusted Median Reduction in Focal Seizure Frequency (focal seizures; 400 mg): 15-29%

NC(=O)N1c2ccccc2C[C@H](O)c2ccccc21 [APTIOM, Eslicarbazepine]
Placebo-adjusted >50% Focal Seizure Reduction (focal seizures; 1200 mg): 20%
Placebo-adjusted Median Reduction in Focal Seizure Frequency (focal seizures; 2000 mg): 14-24%

Cc1nnc2n1-c1ccc(Cl)cc1C(c1ccccc1)=NC2 [Alprazolam]
PTZ-induced brain activity (BOLD fMRI) ([1]; 3 mg/kg i.p., 1 dose, 3 mg/kg): effectively cancelled PTZ-induced brain activity; also recorded: Vehicle vs. Alprazolam in all

Cc1cc(N2CCc3cc(F)ccc3C2)cc(C)c1NC(=O)CC(C)(C)C [XEN1101]
Placebo-adjusted >50% Focal Seizure Reduction (focal seizures; 25 mg): 40%
Placebo-adjusted Median Reduction in Focal Seizure Frequency (focal seizures; 25 mg): 35%

NC(=O)O[C@@H](Cn1ncnn1)c1ccccc1Cl [XCOPRI, Cenobamate]
Placebo-adjusted >50% Focal Seizure Reduction (focal seizures; 400 mg): 39%
Placebo-adjusted Median Reduction in Focal Seizure Frequency (focal seizures; 4200 mg): 31%

ivermectin
FoxP3 mRNA levels (human CD4+ T cells): up-regulation
increase in the percentage of Foxp3+ T cells (human CD4+ T cells): 50%
occurrence of spasms in comparison to controls (vehicle) (spasms; 2 mg/kg i.p. daily P10-P15): significantly suppressed occurrence of spasms; also recorded: significantly fewer spasms
occurrence of spasms in comparison to controls (vehicle) (spasms; 4 mg/kg i.p. daily P10-P15): significantly suppressed occurrence of spasms; also recorded: significantly fewer spasms
limb paralysis (clinical score) (EAE): significantly downregulates
